In this assay the target is T1, 5-HT1A serotonin receptor (Rattus norvegicus, UniProt P19327).
T1 construct: from tissue; host or cells: rat brain membranes (inferred from the cited Hall et al. procedure)
T1 sequence (P19327 1-422): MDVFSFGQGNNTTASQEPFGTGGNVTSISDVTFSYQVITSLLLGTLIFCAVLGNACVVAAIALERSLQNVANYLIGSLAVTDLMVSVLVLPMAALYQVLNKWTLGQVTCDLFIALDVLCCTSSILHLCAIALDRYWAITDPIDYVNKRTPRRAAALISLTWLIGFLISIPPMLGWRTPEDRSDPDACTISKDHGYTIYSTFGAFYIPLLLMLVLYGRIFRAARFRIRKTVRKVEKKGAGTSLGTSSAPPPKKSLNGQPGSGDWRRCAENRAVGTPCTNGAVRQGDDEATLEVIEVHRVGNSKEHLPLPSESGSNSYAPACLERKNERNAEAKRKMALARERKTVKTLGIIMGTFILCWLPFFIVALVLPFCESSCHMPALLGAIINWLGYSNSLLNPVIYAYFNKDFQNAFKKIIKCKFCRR
The assay can be described thus: Displacement of [3H] 8-OHDPAT from the 5-HT1A serotonin receptor (procedure of Hall et al.). Type of assay: binding. The text has this: 8-OHDPAT (dipropylaminotetralin) from the 5-HT1A serotonin receptor following the procedure of Hall et al., J. Neurochem. 44, 1685 (1985).
Background: Displacement assays read how much labelled ligand stays bound in the presence of the test substance.

As a reminder, the IC50 is the point on the concentration scale where inhibition reaches its midpoint. The low end stands for greater potency, the high end for weaker potency. Regarding `COc1ccsc1C1=CCN(CC[C@@H](C(=O)N2C3CCCC2CC3)c2ccccc2)CC1` [Example 2, (R)-1-(8-Aza-bicyclo[3.2.1.]oct-8-yl)4-[4-(3-methoxythiophen-2-yl)-1,2,3,6-tetrahydropyridin-1-yl]-2-phenylbutan-1-one], the IC50 was found to be 0.9 nM.

Turning to `COc1ccsc1C1(O)CCN(CC[C@@H](C(=O)N2C3CCCC2CC3)c2ccccc2)CC1` [Example 1, (R)-1-(8-Aza-bicyclo[3.2.1.]oct-8-yl)-4-[4-hvdroxy-4-(3-methoxythiophen-2-yl)-piperidin-1-yl]-2-phenylbutan-1-one], the IC50 is 942 nM.

The values are drawn from patent EP0755932A1, “(Thiophen-2-yl)piperidin or tetrahydropyridin-azabicyclocarboxamides” (AMERICAN HOME PRODUCTS CORPORATION, priority 1995, dated 1997).
